Laboratory results from US20260356879A1, “CELASTROL DERIVATIVES” (Celloram Inc., priority 2022, published 2026).
Entries after “also recorded” stand apart in the source; their conditions may differ.

Legend:
GSDMD and Caspase-1 = GSDMD and Caspase-1 cleavage in THP-1 cells (western blot); type: cell-based; settings: Homo sapiens; THP-1, western blot; FIG. 7C; read-out: concentration inhibiting GSDMD and Caspase-1 cleavage
Source text: (§1) Pyroptosis, a pro-inflammatory form of cell death, is triggered by the activation of NLRP3 inflammasome components (GSDMD and Caspase-1), leading to the release of pro-inflammatory cytokines IL-1β and IL-18, as well as damage-associated molecular patterns (DAMPs). This process elicits a cascade of inflammatory responses, which can persist if dysregulated in affected tissues. Given the significant inhibitory potential of CLM-022 against NLRP3 inflammasome and IL-1β secretion, it was proposed that CLM-022 could effectively enhance cell viability by inhibiting pyroptosis in the context of inflammation and inflammasome activation. This example illustrates a comparative study of the abilities of CLM-022 and MCC950 to protect THP-1 cells from inflammasome-induced pyroptosis.
(§2) After LPS and Nigericin treatment, THP-1 cells were treated with either CLM-022 or MCC950 over a dosage range of 0 μM to 10 μM and cell viability was determined by impermeant live/dead staining dye and flow cytometric analysis. Additionally, NLRP3 inflammasome-induced cytotoxicity was investigated by measuring the level of LDH in the conditioned media after the CLM-022 and MCC950 treatments. Further, Western blotting of samples from the THP-1 cell viability assays was carried out to determine levels of the pyroptosis-mediating molecules, GSDMD and Caspase-1.

TNF-α secretion = TNF-α secretion in BMDMs, LPS + Nigericin; type: cell-based, mouse; settings: FIG. 5B
Method: This example illustrates a comparative study of CLM-022 and MCC950 in inhibiting NLRP3 inflammasome activity in mouse and human macrophages.
Bone marrow-derived macrophages (BMDMs) were treated with LPS (100 ng/ml) for 3 hours to induce the expression of inflammatory genes, including TNF-α, NLRP3, and pro-IL-1β. Subsequently, the BMDMs were treated with CLM-022 or MCC950 in a dose range of 0-10 μM for 30 minutes. Then, to fully activate NLRP3-dependent inflammasome activity and cytokine secretion, Nigericin (10 μM) was added to the BMDMs for an additional 30 minutes.

NLRP3 inflammasome = experiment: Detection of ASC complex and caspase-1 activity in THP-1 cells by Amnis imaging flow cytometry; type: cell-based, human; settings: THP-1, LPS+Nigericin
Method: FIG. 3A shown images of western blot analysis of THP1 cells treated with LPS, and compound 1 (CLM-001) or compound 22, followed by Nigericin for NLRP3 inflammasome activation. The inflammasome ASC complex in the control cells (LPS+Nigericin) was compared with the treatment of compound 1 (CLM-001) (50 nM, 100 nM), compound 22 (CLM-022) (50 nM, 100 nM), and MCC950 (100 nM, 200 nM). FLICA (green) represents active caspase-1, ASC (red) complex is shown as a red speckle near the nucleus membrane, and DAPI stain for nucleus (blue) captured in the AMNIS analysis. FIG. 3B depicts the cell numbers stained as ASC+ (red) and FLICA+ (green) in the AMNIS were counted in order to compare the level of NLRP3 inflammasome activity in the cells treated as indicated (left). The ASC+ and FLICA+ cells were also plotted as a percentage of total cell count (right). […]
Amnis Imaging flow cytometry (Luminex Co.) is a high-throughput, single-cell, fluorescence-based image analysis method which can detect inflammasome by acquiring images of cellular distribution of ASC complex and active caspase-1. […] The treated cells were subjected to ASC staining and visualization of active caspase-1 using FLICA, a caspase-1 substrate exerting fluorescence upon cleavage. Finally, the ASC+/FLICA+ cells were counted as THP-1 cells with active NLRP3 inflammasome complex.

NLRP3 = molecular target: T1, NLRP3 (Homo sapiens, UniProt Q96P20); experiment: DARTS assay: protection of NLRP3 from Pronase degradation in THP-1 lysates; type: binding; settings: 10 μM, Pronase (50-500 ng/μg of protein), FIG. 6A, 6B
T1 construct: DARTS with Pronase, NACHT and PYD antibodies
Source text: (§3) The NLRP3 inflammasome is composed of a multi-protein complex and the exact molecular mode of NLRP3 activation remains unclear. Currently, there are no NLRP3 inflammasome inhibitors in the clinic, and it is important to identify the mechanism of action and molecular target of potential small molecules that interact with NLRP3. This example illustrates a study of the ability of CLM-022 to protect the NLRP3 molecule as determined using a drug affinity responsive target stability (DARTS) assay. DARTS assay is a robust method to identify small molecule target protein. In case of a drug-target interaction, the small molecule protects target protein from degradation by proteinase (Pronase) whereas free-proteins may be degraded very efficiently in the given condition.
(§4) The DARTS assay was performed using THP-1 lysates pretreated with LPS and Nigericin to induce activation of NLRP3 inflammasome. THP-1 cells (1×10^5/mL) were treated with LPS (100 ng/ml) for 3 hours, followed by 10 μM Nigericin for an additional 30 minutes. Pronase (50-500 ng/μg of protein) was added to the lysate with CLM-022 (10 μM) or MCC950 (10 μM) for the indicated time (10-15 min) at room temperature. The protein components of NLRP3 inflammasome were visualized using antibody recognizing NLRP3-Natch domain (FIG. 6A), NLRP-PYD domain (FIG. 6B), or NEK7 protein (FIG. 6C). […]

THP-1 cells = experiment: THP-1 cell viability (inflammasome-induced pyroptosis), live/dead staining and flow cytometry; type: cell-based, human; settings: THP-1, LPS and Nigericin, 0 μM to 10 μM; FIG. 7A
Source text: as §1, §2

NEK7 = molecular target: T2, NEK7 (Homo sapiens, UniProt Q8TDX7); experiment: DARTS assay: protection of NEK7 from Pronase degradation in THP-1 lysates; type: binding; settings: 10 μM, FIG. 6C
T2 construct: DARTS with Pronase, immunoblot
Source text: as §3, §4

T1 sequence (Q96P20 whole entry): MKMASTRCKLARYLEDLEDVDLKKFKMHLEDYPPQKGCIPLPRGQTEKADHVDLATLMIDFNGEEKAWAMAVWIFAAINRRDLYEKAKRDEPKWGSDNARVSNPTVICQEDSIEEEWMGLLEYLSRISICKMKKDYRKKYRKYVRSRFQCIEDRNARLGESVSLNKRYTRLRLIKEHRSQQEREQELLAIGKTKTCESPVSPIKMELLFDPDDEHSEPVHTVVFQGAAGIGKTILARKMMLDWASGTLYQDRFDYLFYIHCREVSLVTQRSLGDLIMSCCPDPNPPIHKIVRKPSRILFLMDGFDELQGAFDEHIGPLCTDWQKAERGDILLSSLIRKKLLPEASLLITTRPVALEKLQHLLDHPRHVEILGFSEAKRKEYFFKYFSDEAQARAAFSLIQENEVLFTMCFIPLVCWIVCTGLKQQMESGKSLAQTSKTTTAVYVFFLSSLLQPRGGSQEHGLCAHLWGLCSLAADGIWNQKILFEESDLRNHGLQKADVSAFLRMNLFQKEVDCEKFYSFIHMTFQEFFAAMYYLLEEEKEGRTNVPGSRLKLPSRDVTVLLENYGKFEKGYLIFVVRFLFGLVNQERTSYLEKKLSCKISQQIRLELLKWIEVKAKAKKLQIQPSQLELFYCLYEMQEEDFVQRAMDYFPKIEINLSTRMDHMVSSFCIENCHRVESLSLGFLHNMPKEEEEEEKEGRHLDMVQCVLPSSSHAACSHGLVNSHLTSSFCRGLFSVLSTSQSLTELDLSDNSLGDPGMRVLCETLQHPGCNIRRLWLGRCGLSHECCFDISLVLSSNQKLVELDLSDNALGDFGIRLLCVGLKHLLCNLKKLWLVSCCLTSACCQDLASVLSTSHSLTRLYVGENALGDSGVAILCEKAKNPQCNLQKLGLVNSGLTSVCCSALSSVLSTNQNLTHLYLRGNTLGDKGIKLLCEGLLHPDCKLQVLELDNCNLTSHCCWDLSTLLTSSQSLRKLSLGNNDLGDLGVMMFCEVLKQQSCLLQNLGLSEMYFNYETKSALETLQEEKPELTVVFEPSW
T2 sequence (Q8TDX7 whole entry): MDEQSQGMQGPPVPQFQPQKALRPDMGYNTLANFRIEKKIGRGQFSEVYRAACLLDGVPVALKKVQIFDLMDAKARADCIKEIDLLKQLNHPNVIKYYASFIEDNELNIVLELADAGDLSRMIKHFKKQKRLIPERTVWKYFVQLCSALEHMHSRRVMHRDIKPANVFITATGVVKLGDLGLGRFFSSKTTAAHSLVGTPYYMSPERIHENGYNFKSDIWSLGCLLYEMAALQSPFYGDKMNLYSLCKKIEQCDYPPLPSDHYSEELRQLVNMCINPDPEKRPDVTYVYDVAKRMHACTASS

How did the minimal effective concentration (GSDMD and Caspase-1) turn out when CC1=C(O)C(=O)C=C2C1=CC=C1[C@@]2(C)CC[C@@]2(C)[C@@H]3C[C@](C)(N(C)C(=O)C(=O)N(C)C)CC[C@]3(C)CC[C@]12C [Compound 22, N′-[(2R,4aS,6aR,6aS,14aS,14bR)-10-hydroxy-2,4a,6a,6a,9,14a-hexamethyl-11-oxo-1,3,4,5,6,13,14,14b-octahydropicen-2-yl]-N,N,N′-trimethyl-oxamide] was run?
The minimal effective concentration was at most 0.1 µM.

And the “suppression of TNF-α secretion” value (TNF-α secretion)?
The value was “neither CLM-022 nor MCC950 suppressed TNF-α secretion”.

What about the minimal effective concentration (NLRP3 inflammasome; Homo sapiens, FIG. 3C, read-out: concentration at which a strong inhibitory function was observed (as low as)) of the same compound?
Its minimal effective concentration is at most 0.025 µM.

And the “inhibition of cellular ASC+FLICA+ specks / inflammasome complex” value (NLRP3 inflammasome; FIG. 3B)?
The value was “strong inhibitory effect; also recorded: inhibited NLRP3 inflammasome activity in THP1 and the cellular inflammasome complex as visualized by Amnis analysis”.

What about the “protection of NLRP3 protein from Pronase-induced degradation” value (NLRP3) of the same compound?
The value was “markedly improved protection of NLRP3 protein, but not NEK7, from Pronase-induced degradation”.

And the “protection of NLRP3 protein from Pronase-induced degradation” value (NLRP3; listed as CLM-022)?
Its value is “markedly protected NLRP3 protein from degradation which was obviously more efficient than that of MCC950”.

And the “increase in cell viability” value (THP-1 cells)?
Its value is “up to 60%”.

And the “protection of NEK7 from Pronase-induced degradation” value (NEK7)?
The value was “did not protect NEK7 from Pronase-induced degradation”.
